These results are taken from US20250388582A1, “NOVEL BICYCLIC HETEROARYL COMPOUND AND USE THEREOF” (ILDONG PHARMACEUTICAL CO., LTD., priority 2022, published 2025).

A value given as a limit tells only on which side of the number the result lay.

One data set deals with T1, PIKFYVE (Homo sapiens, UniProt Q9Y2I7).
T1 construct: host or cells: HEK293 (ATCC, CRL-1573)
The experiment in a line: NanoBRET TE Intracellular Kinase Assay, interaction of PIKFYVE and compounds in HEK293 cells. It counts as cell-based. The conditions noted are these: IC50 class from BRET; HEK293 cells expressing PIKFYVE-NanoLuc; 2 hours incubation. A digest of the protocol: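 HEK293 cells transiently expressing a PIKFYVE-NanoLuc fusion were incubated 2 h at 37 °C, 5% CO2 with compound plus NanoBRET tracer. BRET was read after adding Nano-Glo substrate, giving intracellular target engagement by tracer displacement.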
Background: In BRET a luciferase serves as donor, and the signal depends on an acceptor being close.

A further data set deals with T2, human GST-PIKFYVE (Homo sapiens, UniProt Q9Y2I7).
T2 construct: GST; purchased Carna biosciences 11-118
T2 sequence (Q9Y2I7 whole entry): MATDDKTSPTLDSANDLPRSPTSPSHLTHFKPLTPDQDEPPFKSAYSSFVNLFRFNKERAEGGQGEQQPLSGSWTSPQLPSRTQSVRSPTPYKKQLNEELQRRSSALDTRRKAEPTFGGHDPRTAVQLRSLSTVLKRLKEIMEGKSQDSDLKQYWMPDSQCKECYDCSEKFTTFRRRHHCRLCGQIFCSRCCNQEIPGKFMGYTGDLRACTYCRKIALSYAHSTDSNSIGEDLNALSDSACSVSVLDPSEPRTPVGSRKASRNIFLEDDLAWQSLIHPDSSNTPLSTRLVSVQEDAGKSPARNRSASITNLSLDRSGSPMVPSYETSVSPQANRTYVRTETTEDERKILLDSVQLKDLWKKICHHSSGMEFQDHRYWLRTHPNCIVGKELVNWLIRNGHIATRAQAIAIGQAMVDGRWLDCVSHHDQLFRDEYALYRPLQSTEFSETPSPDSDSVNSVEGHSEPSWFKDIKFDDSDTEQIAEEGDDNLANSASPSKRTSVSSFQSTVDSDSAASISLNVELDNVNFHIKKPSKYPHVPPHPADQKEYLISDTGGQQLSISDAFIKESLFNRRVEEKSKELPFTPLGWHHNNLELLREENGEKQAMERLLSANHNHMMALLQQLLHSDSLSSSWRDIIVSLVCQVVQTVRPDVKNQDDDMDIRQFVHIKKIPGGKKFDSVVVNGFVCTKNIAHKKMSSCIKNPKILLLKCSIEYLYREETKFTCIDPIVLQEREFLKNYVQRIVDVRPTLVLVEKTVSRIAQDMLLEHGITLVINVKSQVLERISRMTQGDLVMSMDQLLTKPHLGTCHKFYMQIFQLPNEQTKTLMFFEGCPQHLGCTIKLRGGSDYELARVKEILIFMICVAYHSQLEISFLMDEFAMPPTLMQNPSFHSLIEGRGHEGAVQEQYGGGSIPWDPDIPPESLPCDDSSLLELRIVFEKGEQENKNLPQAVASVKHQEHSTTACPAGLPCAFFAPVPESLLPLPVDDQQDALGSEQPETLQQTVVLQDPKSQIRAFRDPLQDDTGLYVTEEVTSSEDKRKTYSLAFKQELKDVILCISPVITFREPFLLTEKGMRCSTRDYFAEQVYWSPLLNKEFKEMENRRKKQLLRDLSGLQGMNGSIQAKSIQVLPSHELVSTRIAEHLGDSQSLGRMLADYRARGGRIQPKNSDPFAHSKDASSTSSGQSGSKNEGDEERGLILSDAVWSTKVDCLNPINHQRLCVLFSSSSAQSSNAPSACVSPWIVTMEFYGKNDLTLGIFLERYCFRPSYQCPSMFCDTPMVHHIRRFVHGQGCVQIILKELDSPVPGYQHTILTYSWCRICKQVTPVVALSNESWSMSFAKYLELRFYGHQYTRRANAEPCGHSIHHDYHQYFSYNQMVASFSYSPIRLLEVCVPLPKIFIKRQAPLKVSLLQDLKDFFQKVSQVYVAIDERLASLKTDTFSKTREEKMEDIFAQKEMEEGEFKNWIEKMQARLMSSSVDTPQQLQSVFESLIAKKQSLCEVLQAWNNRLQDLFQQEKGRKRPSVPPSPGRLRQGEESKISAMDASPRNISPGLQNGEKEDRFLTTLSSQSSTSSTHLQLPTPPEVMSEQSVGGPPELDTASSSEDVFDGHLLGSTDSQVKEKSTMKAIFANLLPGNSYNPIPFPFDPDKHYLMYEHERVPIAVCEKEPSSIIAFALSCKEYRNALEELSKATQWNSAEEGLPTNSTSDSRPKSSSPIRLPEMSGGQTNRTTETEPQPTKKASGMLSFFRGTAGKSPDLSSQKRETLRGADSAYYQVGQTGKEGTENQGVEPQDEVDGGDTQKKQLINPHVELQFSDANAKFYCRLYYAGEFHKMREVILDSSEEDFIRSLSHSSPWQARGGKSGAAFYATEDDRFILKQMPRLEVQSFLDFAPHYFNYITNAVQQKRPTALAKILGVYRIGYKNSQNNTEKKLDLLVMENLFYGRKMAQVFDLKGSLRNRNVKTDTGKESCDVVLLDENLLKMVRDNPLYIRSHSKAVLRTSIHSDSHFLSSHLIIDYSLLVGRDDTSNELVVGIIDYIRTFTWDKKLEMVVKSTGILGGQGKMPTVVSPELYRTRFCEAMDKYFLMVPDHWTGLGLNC
In words: ADP-Glo kinase assay, enzyme inhibition activity against human PIKFYVE (Carna biosciences). The format is biochemical. The note with it: inhibitory activity at final compound concentration 10 nM; 1 hour at room temperature. The essentials:
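Human GST-PIKFYVE (glutathione Sepharose-purified) was reacted with substrate and ATP for 1 h at room temperature in 50 mM MOPS, 1 mM DTT, pH 7.2, with compound at 10 nM final. ADP formed was read by ADP-Glo luminescence; inhibition was calculated against no-enzyme (100%) and no-compound (0%) controls.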

Data set [1] in a line: Microsomal metabolic stability assay. The note with it: Clint class; 1 μM compound, 0.5 mg/ml microsomes, NADPH, UDPGA, Alamethicin; species not given. It counts as in vitro ADME, human or CD1 male mouse. As to the method:
The microsomal metabolic stability assay was performed using pooled human or CD1 male mouse interspecies microsomes. Supplemental cofactors (NADPH, UDPGA) and microsomal membrane pore-forming factor (Alamethicin) were added to promote cytochrome P450 (CYP), UGT reactivity to the target compound. Test compounds (1 μM incubation concentration) and microsomes (0.5 mg/ml incubation concentration) were diluted in 0.1 M phosphate buffer, pH 7.4, and incubated (37° C.). The reaction was initiated by the addition of NADPH (1 mM), UDPGA (1 mM) and Alamethicin (25 μg/mg). The incubation times were 0, 5, 15, 30, and 45 minutes, and at each time point, the reaction was terminated by adding acetonitrile containing internal standard (IS)(1:3 ratio). The plate was then sealed, centrifuged (3000 rpm, 20 min, 4° C.), and the supernatant was analyzed by LC-MS/MS. Hepatic extraction ratio values were calculated from the measured in vitro clearance and Intrinsic clearance (Clint) values were calculated from the assay results, and the respective Clint values were categorized into Low, Medium, and High categories based on the reference document (ref. Prostaglandins & other lipid mediators 136 (2018): 90-95).

T1 sequence (Q9Y2I7 whole entry): as above

Usually IC50 stands for the concentration at which inhibition is half-maximal. Low values mean greater potency, high ones weaker potency. At PIKFYVE, `Cc1cccc(/C=N/Nc2nc(N3CCOCC3)nc3c2ncn3CC(=O)c2ccccc2Cl)c1` [Example 48, (E)-1-(2-chlorophenyl)-2-(6-(2-(3-methylbenzylidene)hydrazinyl)-2-morpholino-9H-purin-9-yl)ethan-1-one] gave an IC50 of no more than 10 nM. Also, on human GST-PIKFYVE, the “ADP-Glo kinase assay (%, 10 nM)” value came out at 90.25%. Moreover, in data set [1], the Microsomal metabolic stability result was “Low (Low <8.8,)”.
As for `Cc1cccc(/C=N/Nc2nc(N3CCOCC3)nc3c2nc(C)n3CC(=O)c2ccccn2)c1` [Example 157, (E)-2-(8-methyl-6-(2-(3-methylbenzylidene)hydrazinyl)-2-morpholino-9H-purin-9-yl)-1-(pyridin-2-yl)ethan-1-one], the 50% inhibitory concentration (IC50) at PIKFYVE lay in the range of 10 to 20 nM. In addition, on human GST-PIKFYVE, the “ADP-Glo kinase assay (%, 10 nM)” value came to 71.16%. For the same compound, in data set [1], the Microsomal metabolic stability result is recorded as “Medium (Medium 8.8~48,)”.
For `Cc1cccc(/C=N/Nc2nc(N3CCOCC3)nc3c2ncn3-c2cccnc2C)c1` [Example 109, (E)-4-(6-(2-(3-methylbenzylidene)hydrazinyl)-9-(2-methylpyridin-3-yl)-9H-purin-2-yl)morpholine], the IC50 on PIKFYVE was 10 to 20 nM. Moreover, the “ADP-Glo kinase assay (%, 10 nM)” value at human GST-PIKFYVE is 79.21%. For the same compound, in data set [1], the Microsomal metabolic stability entry is recorded as “Medium (Medium 8.8~48,)”.
`Cc1cccc(/C=N/Nc2nc(N3CCOCC3)nc3c2ncn3-c2cccnc2)c1` [Example 96, (E)-4-(6-(2-(3-methylbenzylidene)hydrazinyl)-9-(pyridin-3-yl)-9H-purin-2-yl)morpholine] returned a 50% inhibitory concentration (IC50) against PIKFYVE of no more than 10 nM. The “ADP-Glo kinase assay (%, 10 nM)” value at human GST-PIKFYVE is on record as 85.95%. Besides, in data set [1], the Microsomal metabolic stability entry is listed as “Medium (Medium 8.8~48,)”.
The matching figures for `COc1cccc(-n2cnc3c(N/N=C/c4cccc(C)c4)nc(N4CCOCC4)nc32)c1` [Example 121, (E)-4-(9-(3-methoxyphenyl)-6-(2-(3-methylbenzylidene)hydrazinyl)-9H-purin-2-yl)morpholine]: no more than 10 nM, 92.33% and “Medium (Medium 8.8~48,)”.
Regarding `Cc1cccc(/C=N/Nc2nc(N3CCOCC3)nc3c2ncn3CC(=O)c2ccccc2C(F)(F)F)c1` [Example 43, (E)-2-(6-(2-(3-methylbenzylidene)hydrazinyl)-2-morpholino-9H-purin-9-yl)-1-(2-(trifluoromethyl)phenyl)ethan-1-one], at PIKFYVE, the IC50 is no more than 10 nM. Also, the “ADP-Glo kinase assay (%, 10 nM)” value at human GST-PIKFYVE is on record as 80.86%. Moreover, the Microsomal metabolic stability entry in data set [1] was “Medium (Medium 8.8~48,)”.
As for `Cc1cccc(/C=N/Nc2nc(N3CCOCC3)nc3c2ncn3CC(=O)c2ccc[nH]2)c1` [Example 34, (E)-2-(6-(2-(3-methylbenzylidene)hydrazinyl)-2-morpholino-9H-purin-9-yl)-1-(1H-pyrrol-2-yl)ethan-1-one], at human GST-PIKFYVE, the “ADP-Glo kinase assay (%, 10 nM)” value is 74.72%. For the same compound, in data set [1], the Microsomal metabolic stability entry is “Medium (Medium 8.8~48,)”.
On to `Cc1cccc(/C=N/Nc2nc(N3CCOCC3)nc3c2ncn3-c2cc(C)n(C)n2)c1` [Example 147, (E)-4-(9-(1,5-dimethyl-1H-pyrazol-3-yl)-6-(2-(3-methylbenzylidene)hydrazinyl)-9H-purin-2-yl)morpholine], for which the half-maximal inhibitory concentration (IC50) at PIKFYVE is no more than 10 nM. On human GST-PIKFYVE, the “ADP-Glo kinase assay (%, 10 nM)” value was 88.80%. The Microsomal metabolic stability entry in data set [1] was “Medium (Medium 8.8~48,)”.
Turning to `Cc1cccc(/C=N/Nc2nc(N3CCOCC3)nc3c2ncn3C2CN(S(C)(=O)=O)C2)c1` [Example 85, (E)-4-(6-(2-(3-methylbenzylidene)hydrazinyl)-9-(1-(methylsulfonyl)azetidin-3-yl)-9H-purin-2-yl)morpholine], the “ADP-Glo kinase assay (%, 10 nM)” value on human GST-PIKFYVE was found to be 70.06%. In data set [1], the Microsomal metabolic stability result was “Medium (Medium 8.8~48,)”.
In turn, `Cc1cccc(/C=N/Nc2nc(N3CCOCC3)nc3c(-c4cccnc4)cccc23)c1` [Example 215, (E)-4-(4-(2-(3-methylbenzylidene)hydrazinyl)-8-(pyridin-3-yl)quinazolin-2-yl)morpholine] gave an IC50 against PIKFYVE of no more than 10 nM. For the same compound, at human GST-PIKFYVE, the “ADP-Glo kinase assay (%, 10 nM)” value came out at 81.70%. The Microsomal metabolic stability entry in data set [1] is given as “Medium (Medium 8.8~48,)”.
On to `Cc1cccc(/C=N/Nc2nc(N3CCOCC3)nc3c2ncn3-c2cccc(N(C)C)c2)c1` [Example 202, (E)-N,N-dimethyl-3-(6-(2-(3-methylbenzylidene)hydrazinyl)-2-morpholino-9H-purin-9-yl)aniline], for which the 50% inhibitory concentration (IC50) against PIKFYVE was no more than 10 nM. Further, the “ADP-Glo kinase assay (%, 10 nM)” value on human GST-PIKFYVE is 80.47%. The Microsomal metabolic stability entry in data set [1] was “low”.
The matching figures for `Cc1cccc(/C=N/Nc2nc(N3CCOCC3)nc3c2ncn3-c2cccc(Cl)c2)c1` [Example 122, (E)-4-(9-(3-chlorophenyl)-6-(2-(3-methylbenzylidene)hydrazinyl)-9H-purin-2-yl)morpholine]: no more than 10 nM, 87.32% and “Medium (Medium 8.8~48,)”.
The corresponding values for `Cc1cccc(/C=N/Nc2nc(N3CCOCC3)nc3c2ncn3-c2cccc(F)c2)c1` [Example 129, (E)-4-(9-(3-fluorophenyl)-6-(2-(3-methylbenzylidene)hydrazinyl)-9H-purin-2-yl)morpholine] are no more than 10 nM, 89.94% and “Low (Low <8.8,)”.
The corresponding values for `Cc1cccc(/C=N/Nc2nc(N3CCOCC3)nc3c2ncn3-c2cccc(C)c2)c1` [Example 127, (E)-4-(6-(2-(3-methylbenzylidene)hydrazinyl)-9-(m-tolyl)-9H-purin-2-yl)morpholine] are no more than 10 nM, 84.12% and “Low (Low <8.8,)”.
The compound `COc1cc(-n2cnc3c(N/N=C/c4cccc(C)c4)nc(N4CCOCC4)nc32)ccn1` [Example 101, (E)-4-(9-(2-methoxypyridin-4-yl)-6-(2-(3-methylbenzylidene)hydrazinyl)-9H-purin-2-yl)morpholine] gave a half-maximal inhibitory concentration (IC50) on PIKFYVE of no more than 10 nM. Moreover, the “ADP-Glo kinase assay (%, 10 nM)” value on human GST-PIKFYVE was determined as 91.20%. Further, in data set [1], the Microsomal metabolic stability result is “Low (Low <8.8,)”.
The matching figures for `Cc1cccc(/C=N/Nc2nc(N3CCOCC3)nc3c2ncn3-c2ccnc(C(F)(F)F)c2)c1` [Example 139, (E)-4-(6-(2-(3-methylbenzylidene)hydrazinyl)-9-(2-(trifluoromethyl)pyridin-4-yl)-9H-purin-2-yl)morpholine]: no more than 10 nM, 84.50% and “low”.
The matching figures for `Cc1cccc(/C=N/Nc2nc(N3CCOCC3)nc3c(-c4cnn(C)c4)cccc23)c1` [Example 209, (E)-4-(8-(1-methyl-1H-pyrazol-4-yl)-4-(2-(3-methylbenzylidene)hydrazinyl)quinazolin-2-yl)morpholine]: no more than 10 nM, 94.99% and “medium”.
The corresponding values for `Cc1cccc(/C=N/Nc2nc(N3CCOCC3)nc3c2ncn3-c2ccc(F)cn2)c1` [Example 149, (E)-4-(9-(5-fluoropyridin-2-yl)-6-(2-(3-methylbenzylidene)hydrazinyl)-9H-purin-2-yl)morpholine] are no more than 10 nM, 83.75% and “Medium (Medium 8.8~48,)”.
With `Cc1cccc(/C=N/Nc2nc(N3CCOCC3)nc3c2ncn3-c2sc(C)nc2C)c1` [Example 111, (E)-4-(9-(2,4-dimethylthiazol-5-yl)-6-(2-(3-methylbenzylidene)hydrazinyl)-9H-purin-2-yl)morpholine], the half-maximal inhibitory concentration (IC50) on PIKFYVE was no more than 10 nM. In addition, on human GST-PIKFYVE, the “ADP-Glo kinase assay (%, 10 nM)” value was determined as 89.77%. The Microsomal metabolic stability entry in data set [1] is listed as “Medium (Medium 8.8~48,)”.
The compound `Cc1cccc(/C=N/Nc2nc(N3CCOCC3)nc3c2ncn3CC(=O)c2cccc(Cl)c2)c1` [Example 49, (E)-1-(3-chlorophenyl)-2-(6-(2-(3-methylbenzylidene)hydrazinyl)-2-morpholino-9H-purin-9-yl)ethan-1-one] yielded an IC50 against PIKFYVE of no more than 10 nM. The “ADP-Glo kinase assay (%, 10 nM)” value on human GST-PIKFYVE worked out at 78.87%.
The corresponding values for `COc1ccc(-n2cnc3c(N/N=C/c4cccc(C)c4)nc(N4CCOCC4)nc32)nc1` [Example 108, (E)-4-(9-(5-methoxypyridin-2-yl)-6-(2-(3-methylbenzylidene)hydrazinyl)-9H-purin-2-yl)morpholine] are no more than 10 nM and 80.35%.
Regarding `Cc1cccc(/C=N/Nc2nc(N3CCOCC3)nc3c2ncn3CCc2cccnc2)c1` [Example 80, (E)-4-(6-(2-(3-methylbenzylidene)hydrazinyl)-9-(2-(pyridin-3-yl)ethyl)-9H-purin-2-yl)morpholine], the IC50 on PIKFYVE is no more than 10 nM. Moreover, the “ADP-Glo kinase assay (%, 10 nM)” value on human GST-PIKFYVE is 83.61%.
